# Assay results from ChEMBL document CHEMBL5316263, “Structure-Based Discovery of Selective Histone Deacetylase 8 Degraders with Potent Anticancer Activity” (J Med Chem, 2023).
# pEC50, pIC50: −log10 of the molar value. Active and inactive are the calls of the source. The rule behind the calls is not given here.
# Columns and labels:
# [1] = target: T1, Protein cereblon/Histone deacetylase 8 (Homo sapiens) (UniProt Q9BY41+Q96SW2); assay: Protac activity at CRBN/HDAC8 in human A549 cells assessed as degradation of HDAC8 at 2 uM measured after 20 hrs by Western blot analysis relative to control; format: cell-based
# [2] = target: T1, Protein cereblon/Histone deacetylase 8 (Homo sapiens); assay: Protac activity at CRBN/HDAC8 in human A549 cells assessed as degradation of HDAC8 at 200 nM measured after 20 hrs by Western blot analysis relative to control; format: cell-based
# [3] = target: Protein cereblon/Histone deacetylase 8 (Homo sapiens, UniProt Q96SW2+Q9BY41); assay: Protac activity at CRBN/HDAC8 in human A549 cells assessed as degradation of HDAC8 incubated for 20 hrs by ELISA method; format: cell-based
# [4] = target: T1, Protein cereblon/Histone deacetylase 8 (Homo sapiens); assay: Protac activity at CRBN/HDAC8 in human A549 cells assessed as reduction in HDAC8 protein level at 0.1 to 10 uM by Western blot analysis; format: cell-based; conditions: dose 0.1-10 µM
# [5] = target: Cereblon/Ikaros (Homo sapiens) (UniProt Q96SW2+Q13422); assay: Protac activity at CRBN/IKZF1 in human A549 cells assessed as reduction in IKZF1 protein level at 10 uM by Western blot analysis; format: cell-based
# [6] = target: T1, Protein cereblon/Histone deacetylase 8 (Homo sapiens); assay: Protac activity at CRBN/HDAC8 in human A549 cells assessed as maximum degradation at 10 uM incubated for 20 hrs by ELISA method relative to control; format: cell-based
# A549 [7] = assay: Antiproliferative activity against human A549 cells assessed as inhibition of cell growth measured after 72 hrs by CCK-8 method; format: functional, cell-based; conditions: for pIC50: A549, 72 h; for Activity: dose <= 1.5 µM
# [8] = target: T2, Histone deacetylase 8 (Homo sapiens) (UniProt Q9BY41); assay: Induction of degradation in HDAC8 in human A549 cells at 2 microM measured after 20 hrs by Western blot analysis relative to control; format: cell-based
# T2 sequence (whole entry): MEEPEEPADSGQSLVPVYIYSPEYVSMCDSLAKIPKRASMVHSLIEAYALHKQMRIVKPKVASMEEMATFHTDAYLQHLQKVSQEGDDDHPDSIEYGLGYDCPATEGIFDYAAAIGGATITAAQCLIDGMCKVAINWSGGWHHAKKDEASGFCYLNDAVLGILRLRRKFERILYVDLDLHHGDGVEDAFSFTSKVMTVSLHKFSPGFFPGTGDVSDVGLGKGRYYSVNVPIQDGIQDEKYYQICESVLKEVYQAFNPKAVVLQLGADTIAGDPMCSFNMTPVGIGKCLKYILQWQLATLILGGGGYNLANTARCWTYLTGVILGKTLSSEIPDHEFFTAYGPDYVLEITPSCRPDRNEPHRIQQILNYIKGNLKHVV
# [9] = target: T2, Histone deacetylase 8 (Homo sapiens); assay: Induction of degradation in HDAC8 in human A549 cells at 200 nM measured after 20 hrs by Western blot analysis relative to control; format: cell-based
# [10] = target: T2, Histone deacetylase 8 (Homo sapiens); assay: Induction of degradation in HDAC8 in human A549 cells at 10 uM incubated for 2 hrs by Western blot analysis; format: cell-based
# [11] = target: T3, von Hippel-Lindau disease tumor suppressor/Histone deacetylase 8 (Homo sapiens) (UniProt Q9BY41+P40337); assay: Protac activity at VHL/HDAC8 in human A549 cells assessed as degradation of HDAC8 at 200 nM measured after 20 hrs by Western blot analysis relative to control; format: cell-based
# [12] = target: T3, von Hippel-Lindau disease tumor suppressor/Histone deacetylase 8 (Homo sapiens); assay: Protac activity at VHL/HDAC8 in human A549 cells assessed as degradation of HDAC8 at 2 uM measured after 20 hrs by Western blot analysis relative to control; format: cell-based
# A549 [13] = assay: Induction of apoptosis in human A549 cells assessed as viable cells at 40 uM measured after 72 hrs by annexin V-FITC staining based flow cytometry (reference value: 99.1%); format: functional; conditions: read-out: Activity
# A549 [14] = assay: Induction of apoptosis in human A549 cells assessed as late apoptotic cells at 20 uM measured after 72 hrs by annexin V-FITC staining based flow cytometry (reference value: 0.20%); format: functional
# A549 [15] = assay: Induction of apoptosis in human A549 cells assessed as early apoptotic cells at 10 uM measured after 72 hrs by annexin V-FITC staining based flow cytometry (reference value: 0.13%); format: functional
# A549 [16] = assay: Induction of apoptosis in human A549 cells assessed as early apoptotic cells at 30 uM measured after 72 hrs by annexin V-FITC staining based flow cytometry (reference value: 0.13%); format: functional
# A549 [17] = assay: Induction of apoptosis in human A549 cells assessed as necrotic cells at 40 uM measured after 72 hrs by annexin V-FITC staining based flow cytometry (reference value: 0.005%); format: functional
# A549 [18] = assay: Induction of apoptosis in human A549 cells assessed as viable cells at 30 uM measured after 72 hrs by annexin V-FITC staining based flow cytometry (reference value: 99.1%); format: functional; conditions: read-out: Activity
# A549 [19] = assay: Induction of apoptosis in human A549 cells assessed as late apoptotic cells at 10 uM measured after 72 hrs by annexin V-FITC staining based flow cytometry (reference value: 0.20%); format: functional
# A549 [20] = assay: Induction of apoptosis in human A549 cells assessed as viable cells at 20 uM measured after 72 hrs by annexin V-FITC staining based flow cytometry (reference value: 99.1%); format: functional; conditions: read-out: Activity
# A549 [21] = assay: Induction of apoptosis in human A549 cells assessed as necrotic cells at 30 uM measured after 72 hrs by annexin V-FITC staining based flow cytometry (reference value: 0.005%); format: functional
# A549 [22] = assay: Induction of apoptosis in human A549 cells assessed as late apoptotic cells at 40 uM measured after 72 hrs by annexin V-FITC staining based flow cytometry (reference value: 0.20%); format: functional
# A549 [23] = assay: Induction of apoptosis in human A549 cells assessed as late apoptotic cells at 30 uM measured after 72 hrs by annexin V-FITC staining based flow cytometry (reference value: 0.20%); format: functional
# A549 [24] = assay: Induction of apoptosis in human A549 cells assessed as viable cells at 10 uM measured after 72 hrs by annexin V-FITC staining based flow cytometry (reference value: 99.1%); format: functional; conditions: read-out: Activity
# A549 [25] = assay: Induction of apoptosis in human A549 cells assessed as necrotic cells at 20 uM measured after 72 hrs by annexin V-FITC staining based flow cytometry (reference value: 0.005%); format: functional
# A549 [26] = assay: Induction of apoptosis in human A549 cells assessed as necrotic cells at 10 uM measured after 72 hrs by annexin V-FITC staining based flow cytometry (reference value: 0.005%); format: functional
# A549 [27] = assay: Antiproliferative activity against human A549 cells assessed as inhibition of cell growth measured after 72 hrs under irradiation by CCK-8 method; format: functional, cell-based; conditions: A549, light or radiation study
# A549 [28] = assay: Induction of apoptosis in human A549 cells assessed as early apoptotic cells at 20 uM measured after 72 hrs by annexin V-FITC staining based flow cytometry (reference value: 0.13%); format: functional
# A549 [29] = assay: Induction of apoptosis in human A549 cells assessed as early apoptotic cells at 40 uM measured after 72 hrs by annexin V-FITC staining based flow cytometry (reference value: 0.13%); format: functional
# T3 sequence (P40337 whole entry, looked up, one chain of several): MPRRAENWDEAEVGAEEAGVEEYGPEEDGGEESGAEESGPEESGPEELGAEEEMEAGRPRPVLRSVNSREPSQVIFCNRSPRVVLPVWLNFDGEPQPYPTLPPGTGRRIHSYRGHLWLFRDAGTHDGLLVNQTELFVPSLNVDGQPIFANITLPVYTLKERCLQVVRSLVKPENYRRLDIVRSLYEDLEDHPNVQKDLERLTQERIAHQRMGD
# T1 sequence (Q96SW2 whole entry, looked up, one chain of several): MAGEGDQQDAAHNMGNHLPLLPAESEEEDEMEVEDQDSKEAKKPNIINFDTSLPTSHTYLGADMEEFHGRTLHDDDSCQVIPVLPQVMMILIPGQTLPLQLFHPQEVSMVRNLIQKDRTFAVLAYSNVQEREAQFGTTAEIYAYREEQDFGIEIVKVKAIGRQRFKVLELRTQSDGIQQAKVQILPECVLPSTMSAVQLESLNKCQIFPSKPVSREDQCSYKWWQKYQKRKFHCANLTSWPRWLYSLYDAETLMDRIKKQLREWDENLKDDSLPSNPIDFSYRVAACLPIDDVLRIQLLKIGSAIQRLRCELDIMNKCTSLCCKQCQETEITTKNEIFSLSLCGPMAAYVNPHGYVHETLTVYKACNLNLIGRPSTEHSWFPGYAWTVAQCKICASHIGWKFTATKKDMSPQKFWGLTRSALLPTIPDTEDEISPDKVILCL
# Protein cereblon/Histone deacetylase 8, sequence (Q96SW2 whole entry, one chain of several): as the sequence (Q96SW2 whole entry, looked up, one chain of several) above
smiles,measurement,setting,value
O=C1CCC(N2C(=O)c3cccc(NCCc4cn(CCCCCOc5ccc(Cn6ccc7ccc(C(=O)NO)cc76)cc5)nn4)c3C2=O)C(=O)N1 (stereo unspecified),Activity,[1],78.4%
same,Activity,[2],28%
O=C1CCC(N2C(=O)c3cccc(NCc4cn(CCCCOc5ccc(Cn6ccc7ccc(C(=O)NO)cc76)cc5)nn4)c3C2=O)C(=O)N1 (stereo unspecified),pEC50,[3],6.33
same,Activity,[1],83.6%
same,Activity,[4],Active
same,Activity,[2],30.6%
same,Activity,[5],Active
same,Emax,[6],90.2%
same,pIC50,A549 [7],5.15
same,Activity,A549 [7],Dose-Dependent Effect
Nc1cccc2c1C(=O)N(C1CCC(=O)NC1=O)C2=O (stereo unspecified),Activity,[8],12.8%
same,Activity,[9],9.5%
same,Activity,[10],inactive
O=C1CCC(N2C(=O)c3cccc(NCc4cn(CCOCCOCCOCCOCCOc5ccc(Cn6ccc7ccc(C(=O)NO)cc76)cc5)nn4)c3C2=O)C(=O)N1 (stereo unspecified),Activity,[1],80.2%
same,Activity,[2],39.4%
Cc1ncsc1-c1ccc([C@H](C)NC(=O)[C@@H]2C[C@@H](O)CN2C(=O)[C@@H](NC(=O)CCCCOc2ccc(Cn3ccc4ccc(C(=O)NO)cc43)cc2)C(C)(C)C)cc1,Activity,[11],34.6%
same,Activity,[12],75.7%
Cc1ncsc1-c1ccc([C@H](C)NC(=O)[C@@H]2C[C@@H](O)CN2C(=O)[C@@H](NC(=O)CCCCCOc2ccc(Cn3ccc4ccc(C(=O)NO)cc43)cc2)C(C)(C)C)cc1,Activity,[11],27.3%
same,Activity,[12],51.4%
O=C1CCC(N2C(=O)c3cccc(NCc4cn(CCOCCOCCOCCOc5ccc(Cn6ccc7ccc(C(=O)NO)cc76)cc5)nn4)c3C2=O)C(=O)N1 (stereo unspecified),Activity,[1],65.9%
same,Activity,[2],36.5%
O=C1CCC(N2C(=O)c3cccc(NCc4cn(CCCOc5ccc(Cn6ccc7ccc(C(=O)NO)cc76)cc5)nn4)c3C2=O)C(=O)N1 (stereo unspecified),Activity,[1],69.4%
same,Activity,[2],25.6%
COc1ccc(Cn2ccc3ccc(C(=O)NO)cc32)cc1,Activity,[8],5%
same,viability at 40 µM,A549 [13],28.6%
same,Activity,A549 [14],9.71%
same,Activity,[9],3.6%
same,Activity,A549 [15],42%
same,Activity,A549 [16],63%
same,Activity,A549 [17],1.21%
same,viability at 30 µM,A549 [18],24.6%
same,Activity,A549 [19],11.7%
same,viability at 20 µM,A549 [20],29%
same,Activity,A549 [21],0.47%
same,Activity,A549 [22],24.9%
same,Activity,A549 [23],12%
same,viability at 10 µM,A549 [24],45.6%
same,Activity,A549 [25],0.67%
same,Activity,A549 [26],0.7%
same,pIC50,A549 [27],4.88
same,pIC50,A549 [7],4.80
same,Activity,A549 [28],50.7%
same,Activity,A549 [29],46.3%
O=C1CCC(N2C(=O)c3cccc(NCc4cn(CCCCCOc5ccc(Cn6ccc7ccc(C(=O)NO)cc76)cc5)nn4)c3C2=O)C(=O)N1 (stereo unspecified),pEC50,[3],6.21
same,Activity,[1],85.9%
same,Activity,[4],Active
same,Activity,[2],39.5%
same,Activity,[5],Active
same,Emax,[6],90.2%
same,pIC50,A549 [7],4.90
same,Activity,A549 [7],Dose-Dependent Effect
